According to ChEMBL document CHEMBL5226282, “TLR2 Agonistic Small Molecules: Detailed Structure-Activity Relationship, Applications, and Future Prospects” (J Med Chem, 2021):

How the values were obtained:
[1] = target: Toll-like receptor 1/2 (Mus musculus); test: Agonist activity at TLR2/TLR1 in mouse Macrophage cell line
Toll-like receptor 1/2 = Toll-like receptor 1/2 (Homo sapiens, UniProt O60603+Q15399); test: Agonist activity at TLR2/TLR1 in human THP-1 cells; type: cell-based
Chain of Toll-like receptor 1/2 (O60603 whole entry): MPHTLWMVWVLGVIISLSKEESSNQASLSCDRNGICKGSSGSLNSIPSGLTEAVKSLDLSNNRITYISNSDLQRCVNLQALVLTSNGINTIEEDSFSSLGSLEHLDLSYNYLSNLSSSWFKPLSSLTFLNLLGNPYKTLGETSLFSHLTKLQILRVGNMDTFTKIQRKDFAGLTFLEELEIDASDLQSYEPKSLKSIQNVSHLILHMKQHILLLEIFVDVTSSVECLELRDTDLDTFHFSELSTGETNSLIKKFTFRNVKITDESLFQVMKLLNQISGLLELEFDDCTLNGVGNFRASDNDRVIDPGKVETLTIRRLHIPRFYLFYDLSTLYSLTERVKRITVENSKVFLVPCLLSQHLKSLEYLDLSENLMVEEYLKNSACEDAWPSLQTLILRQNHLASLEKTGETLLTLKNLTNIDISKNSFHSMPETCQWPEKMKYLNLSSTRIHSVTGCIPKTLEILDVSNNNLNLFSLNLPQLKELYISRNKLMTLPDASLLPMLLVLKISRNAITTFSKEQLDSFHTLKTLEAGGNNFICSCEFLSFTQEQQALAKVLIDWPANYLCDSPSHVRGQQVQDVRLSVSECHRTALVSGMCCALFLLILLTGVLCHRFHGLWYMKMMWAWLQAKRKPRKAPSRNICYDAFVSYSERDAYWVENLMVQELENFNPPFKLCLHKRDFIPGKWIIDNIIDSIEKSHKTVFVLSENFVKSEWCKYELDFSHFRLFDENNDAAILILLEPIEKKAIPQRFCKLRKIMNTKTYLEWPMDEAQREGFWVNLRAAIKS
Chain of Toll-like receptor 1/2 (Q15399 whole entry): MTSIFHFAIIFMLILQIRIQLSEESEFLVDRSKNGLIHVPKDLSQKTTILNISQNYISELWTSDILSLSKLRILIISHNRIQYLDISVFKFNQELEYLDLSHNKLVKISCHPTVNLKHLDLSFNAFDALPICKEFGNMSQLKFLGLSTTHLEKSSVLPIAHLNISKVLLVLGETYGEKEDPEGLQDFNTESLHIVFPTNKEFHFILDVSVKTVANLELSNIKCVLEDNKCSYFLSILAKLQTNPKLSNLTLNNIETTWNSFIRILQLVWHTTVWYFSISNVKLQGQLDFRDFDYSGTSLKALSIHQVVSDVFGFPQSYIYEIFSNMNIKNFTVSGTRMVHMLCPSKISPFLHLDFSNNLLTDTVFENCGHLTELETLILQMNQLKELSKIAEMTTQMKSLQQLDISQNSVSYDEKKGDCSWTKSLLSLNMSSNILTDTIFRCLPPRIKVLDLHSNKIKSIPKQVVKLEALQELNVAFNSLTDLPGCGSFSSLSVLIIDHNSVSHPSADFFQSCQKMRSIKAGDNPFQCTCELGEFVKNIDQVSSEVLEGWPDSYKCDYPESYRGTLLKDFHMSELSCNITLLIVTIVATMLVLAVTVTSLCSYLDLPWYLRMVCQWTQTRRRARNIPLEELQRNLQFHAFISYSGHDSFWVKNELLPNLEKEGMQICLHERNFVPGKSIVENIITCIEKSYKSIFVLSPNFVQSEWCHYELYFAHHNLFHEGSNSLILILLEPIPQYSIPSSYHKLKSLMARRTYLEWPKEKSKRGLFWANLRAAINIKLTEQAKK

EC50 [1] | EC50 (Toll-like receptor 1/2) | Compound
> 5000 nM | > 5000 nM | O=C(N[C@H]1C[C@@H]1c1ccccc1)[C@@H]1CN(C(=O)c2cccc(C(=O)N3C[C@@H](C(=O)N[C@H]4C[C@@H]4c4ccccc4)[C@H](C(=O)N[C@H]4C[C@@H]4c4ccccc4)C3)c2)C[C@H]1C(=O)N[C@H]1C[C@@H]1c1ccccc1
> 5000 nM | > 5000 nM | O=C(N[C@H]1C[C@@H]1c1ccccc1)[C@@H]1CN(C(=O)C#CC(=O)N2C[C@@H](C(=O)N[C@H]3C[C@@H]3c3ccccc3)[C@H](C(=O)N[C@H]3C[C@@H]3c3ccccc3)C2)C[C@H]1C(=O)N[C@H]1C[C@@H]1c1ccccc1
10 nM | 0.17 nM | CCCCCCCCCCCCCCNC(=O)[C@@H]1CN(C(=O)c2ccc(C(=O)N3C[C@@H](C(=O)N[C@H]4C[C@@H]4c4ccccc4)[C@H](C(=O)N[C@@H]4C[C@H]4c4ccccc4)C3)cc2)C[C@H]1C(=O)NCCCCCCCCCCCCCC
540 nM | 0.33 nM | CCCCCCCCNC(=O)[C@@H]1CN(C(=O)c2ccc(C(=O)N3C[C@@H](C(=O)N[C@H]4C[C@@H]4c4ccccc4)[C@H](C(=O)N[C@@H]4C[C@H]4c4ccccc4)C3)cc2)C[C@H]1C(=O)N[C@H]1C[C@@H]1c1ccccc1
140 nM | 1 nM | Nc1cc(C(=O)N2C[C@@H](C(=O)N[C@H]3C[C@@H]3c3ccccc3)[C@H](C(=O)N[C@H]3C[C@@H]3c3ccccc3)C2)ccc1C(=O)N1C[C@@H](C(=O)N[C@H]2C[C@@H]2c2ccccc2)[C@H](C(=O)N[C@H]2C[C@@H]2c2ccccc2)C1
> 5000 nM | > 5000 nM | O=C(NCCc1ccc(F)cc1)[C@@H]1CN(C(=O)c2ccc3cc(C(=O)N4C[C@@H](C(=O)NCCc5ccc(F)cc5)[C@H](C(=O)NCCc5ccc(F)cc5)C4)ccc3c2)C[C@H]1C(=O)NCCc1ccc(F)cc1
> 5000 nM | > 5000 nM | O=C(N[C@H]1C[C@@H]1c1ccccc1)[C@@H]1CN(C(=O)COCC(=O)N2C[C@@H](C(=O)N[C@H]3C[C@@H]3c3ccccc3)[C@H](C(=O)N[C@H]3C[C@@H]3c3ccccc3)C2)C[C@H]1C(=O)N[C@H]1C[C@@H]1c1ccccc1
> 5000 nM | > 5000 nM | O=C(NCCc1ccc(F)cc1)[C@@H]1CN(C(=O)[C@H]2CC[C@@H](C(=O)N3C[C@@H](C(=O)NCCc4ccc(F)cc4)[C@H](C(=O)NCCc4ccc(F)cc4)C3)CC2)C[C@H]1C(=O)NCCc1ccc(F)cc1
2300 nM | 90 nM | O=C(N[C@H]1C[C@@H]1c1ccccc1)[C@@H]1CN(C(=O)c2ccc(-c3ccc(C(=O)N4C[C@@H](C(=O)N[C@H]5C[C@@H]5c5ccccc5)[C@H](C(=O)N[C@H]5C[C@@H]5c5ccccc5)C4)cc3)cc2)C[C@H]1C(=O)N[C@H]1C[C@@H]1c1ccccc1
650 nM | 0.1 nM | CCCCCCCCCCNC(=O)[C@@H]1CN(C(=O)c2ccc(C(=O)N3C[C@@H](C(=O)N[C@H]4C[C@@H]4c4ccccc4)[C@H](C(=O)N[C@@H]4C[C@H]4c4ccccc4)C3)cc2)C[C@H]1C(=O)N[C@H]1C[C@@H]1c1ccccc1
1000 nM | 2.5 nM | CCCCCCCCCCCCCCCCNC(=O)[C@@H]1CN(C(=O)c2ccc(C(=O)N3C[C@@H](C(=O)N[C@H]4C[C@@H]4c4ccccc4)[C@H](C(=O)N[C@@H]4C[C@H]4c4ccccc4)C3)cc2)C[C@H]1C(=O)NCCCCCCCCCCCCCCCC
> 5000 nM | > 5000 nM | COc1ccc([C@H]2C[C@@H]2NC(=O)[C@@H]2CN(C(=O)c3ccc(C(=O)N4C[C@@H](C(=O)N[C@H]5C[C@@H]5c5ccc(OC)cc5)[C@H](C(=O)N[C@@H]5C[C@H]5c5ccc(OC)cc5)C4)cc3)C[C@H]2C(=O)N[C@H]2C[C@@H]2c2ccc(OC)cc2)cc1
> 5000 nM | > 5000 nM | O=C(N[C@H]1C[C@@H]1c1ccccc1)[C@@H]1CN(C(=O)[C@H]2CC[C@@H](C(=O)N3C[C@@H](C(=O)N[C@H]4C[C@@H]4c4ccccc4)[C@H](C(=O)N[C@H]4C[C@@H]4c4ccccc4)C3)CC2)C[C@H]1C(=O)N[C@H]1C[C@@H]1c1ccccc1
> 5000 nM | > 5000 nM | O=C(N[C@H]1C[C@@H]1c1ccccc1)[C@@H]1CN(C(=O)C/C=C/CC(=O)N2C[C@@H](C(=O)N[C@H]3C[C@@H]3c3ccccc3)[C@H](C(=O)N[C@H]3C[C@@H]3c3ccccc3)C2)C[C@H]1C(=O)N[C@H]1C[C@@H]1c1ccccc1
> 5000 nM | > 5000 nM | O=C(N[C@H]1C[C@@H]1c1ccccc1)[C@@H]1CN(C(=O)c2ccc(C(=O)N3C[C@@H](C(=O)N[C@H]4C[C@@H]4c4ccccc4)[C@H](C(=O)N[C@H]4C[C@@H]4c4ccccc4)C3)c3ccccc23)C[C@H]1C(=O)N[C@H]1C[C@@H]1c1ccccc1
5000 nM | 40 nM | O=C(N[C@H]1C[C@@H]1c1ccc(Cl)cc1)[C@@H]1CN(C(=O)c2ccc(C(=O)N3C[C@@H](C(=O)N[C@H]4C[C@@H]4c4ccc(Cl)cc4)[C@H](C(=O)N[C@@H]4C[C@H]4c4ccc(Cl)cc4)C3)cc2)C[C@H]1C(=O)N[C@H]1C[C@@H]1c1ccc(Cl)cc1
> 5 nM | > 5 nM | CCCCCCCCCCCCNC(=O)[C@@H]1CN(C(=O)c2ccc(C(=O)N3C[C@@H](C(=O)NCCCCCCCCCCCC)[C@H](C(=O)NCCCCCCCCCCCC)C3)cc2)C[C@H]1C(=O)NCCCCCCCCCCCC
> 5000 nM | 1600 nM | O=C(N[C@H]1C[C@@H]1c1ccc(Br)cc1)[C@@H]1CN(C(=O)c2ccc(C(=O)N3C[C@@H](C(=O)N[C@H]4C[C@@H]4c4ccc(Br)cc4)[C@H](C(=O)N[C@@H]4C[C@H]4c4ccc(Br)cc4)C3)cc2)C[C@H]1C(=O)N[C@H]1C[C@@H]1c1ccc(Br)cc1

EC50 [1] | EC50 (Toll-like receptor 1/2) | Compound
> 5000 nM | 20 nM | O=C(N[C@H]1C[C@@H]1c1ccccc1)[C@@H]1CN(C(=O)c2cc(O)c(C(=O)N3C[C@@H](C(=O)N[C@H]4C[C@@H]4c4ccccc4)[C@H](C(=O)N[C@H]4C[C@@H]4c4ccccc4)C3)cc2O)C[C@H]1C(=O)N[C@H]1C[C@@H]1c1ccccc1
30 nM | 2 nM | CCCCNC(=O)[C@@H]1CN(C(=O)c2ccc(C(=O)N3C[C@@H](C(=O)N[C@H]4C[C@@H]4c4ccccc4)[C@H](C(=O)N[C@@H]4C[C@H]4c4ccccc4)C3)cc2)C[C@H]1C(=O)N[C@H]1C[C@@H]1c1ccccc1
710 nM | 3.5 nM | CCCCCCCCNC(=O)[C@@H]1CN(C(=O)c2ccc(C(=O)N3C[C@@H](C(=O)NCCCCCCCC)[C@H](C(=O)N[C@@H]4C[C@H]4c4ccccc4)C3)cc2)C[C@H]1C(=O)N[C@@H]1C[C@H]1c1ccccc1
1000 nM | 1 nM | CCCCCCCCNC(=O)[C@@H]1CN(C(=O)c2ccc(C(=O)N3C[C@@H](C(=O)N[C@H]4C[C@@H]4c4ccccc4)[C@H](C(=O)N[C@@H]4C[C@H]4c4ccccc4)C3)cc2)C[C@H]1C(=O)NCCCCCCCC
> 5000 nM | 360 nM | O=C(N[C@H]1C[C@@H]1c1ccccc1)[C@@H]1CN(C(=O)c2cc(Cl)c(C(=O)N3C[C@@H](C(=O)N[C@H]4C[C@@H]4c4ccccc4)[C@H](C(=O)N[C@H]4C[C@@H]4c4ccccc4)C3)cc2Cl)C[C@H]1C(=O)N[C@H]1C[C@@H]1c1ccccc1
60 nM | 0.28 nM | CCCCNC(=O)[C@@H]1CN(C(=O)c2ccc(C(=O)N3C[C@@H](C(=O)N[C@H]4C[C@@H]4c4ccccc4)[C@H](C(=O)N[C@@H]4C[C@H]4c4ccccc4)C3)cc2)C[C@H]1C(=O)NCCCC
> 5 nM | > 5 nM | CCCCCCCCCCCCCCNC(=O)[C@@H]1CN(C(=O)c2ccc(C(=O)N3C[C@@H](C(=O)NCCCCCCCCCCCCCC)[C@H](C(=O)NCCCCCCCCCCCCCC)C3)cc2)C[C@H]1C(=O)NCCCCCCCCCCCCCC
2.1 nM | 0.1 nM | CCCCCCCCCCCCNC(=O)[C@@H]1CN(C(=O)c2ccc(C(=O)N3C[C@@H](C(=O)N[C@H]4C[C@@H]4c4ccccc4)[C@H](C(=O)N[C@@H]4C[C@H]4c4ccccc4)C3)cc2)C[C@H]1C(=O)N[C@H]1C[C@@H]1c1ccccc1
> 5000 nM | > 5000 nM | COC(=O)[C@@H]1CN(C(=O)c2ccc(C(=O)N3C[C@@H](C(=O)N[C@@H]4C[C@H]4c4ccccc4)[C@H](C(=O)OC)C3)cc2)C[C@H]1C(=O)N[C@@H]1C[C@H]1c1ccccc1
380 nM | 2 nM | O=C(N[C@H]1C[C@@H]1c1ccccc1)[C@@H]1CN(C(=O)c2ccc3cc(C(=O)N4C[C@@H](C(=O)N[C@H]5C[C@@H]5c5ccccc5)[C@H](C(=O)N[C@H]5C[C@@H]5c5ccccc5)C4)ccc3c2)C[C@H]1C(=O)N[C@H]1C[C@@H]1c1ccccc1
> 5000 nM | 130 nM | O=C(NCCc1ccc(F)cc1)[C@@H]1CN(C(=O)c2ccc(C(=O)N3C[C@@H](C(=O)NCCc4ccc(F)cc4)[C@H](C(=O)NCCc4ccc(F)cc4)C3)c(O)c2)C[C@H]1C(=O)NCCc1ccc(F)cc1
80 nM | 0.25 nM | CCCCCCNC(=O)[C@@H]1CN(C(=O)c2ccc(C(=O)N3C[C@@H](C(=O)N[C@H]4C[C@@H]4c4ccccc4)[C@H](C(=O)N[C@@H]4C[C@H]4c4ccccc4)C3)cc2)C[C@H]1C(=O)N[C@H]1C[C@@H]1c1ccccc1
1.1 nM | 0.08 nM | CCCCCCCCCCCCCCNC(=O)[C@@H]1CN(C(=O)c2ccc(C(=O)N3C[C@@H](C(=O)N[C@H]4C[C@@H]4c4ccccc4)[C@H](C(=O)N[C@@H]4C[C@H]4c4ccccc4)C3)cc2)C[C@H]1C(=O)N[C@H]1C[C@@H]1c1ccccc1
> 5000 nM | > 5000 nM | O=C(N[C@H]1C[C@@H]1c1ccccc1)[C@@H]1CN(C(=O)[C@@H]2CCC[C@H](C(=O)N3C[C@@H](C(=O)N[C@H]4C[C@@H]4c4ccccc4)[C@H](C(=O)N[C@H]4C[C@@H]4c4ccccc4)C3)C2)C[C@H]1C(=O)N[C@H]1C[C@@H]1c1ccccc1
> 5000 nM | > 5000 nM | O=C(NCCc1ccc(F)cc1)[C@@H]1CN(C(=O)/C=C/C(=O)N2C[C@@H](C(=O)NCCc3ccc(F)cc3)[C@H](C(=O)NCCc3ccc(F)cc3)C2)C[C@H]1C(=O)NCCc1ccc(F)cc1
> 5000 nM | > 5000 nM | O=C(NCCc1ccc(F)cc1)[C@@H]1CN(C(=O)C/C=C/CC(=O)N2C[C@@H](C(=O)NCCc3ccc(F)cc3)[C@H](C(=O)NCCc3ccc(F)cc3)C2)C[C@H]1C(=O)NCCc1ccc(F)cc1
270 nM | 4 nM | O=C(N[C@H]1C[C@@H]1c1ccccc1)[C@@H]1CN(C(=O)c2ccc(C(=O)N3C[C@@H](C(=O)N[C@H]4C[C@@H]4c4ccccc4)[C@H](C(=O)N[C@H]4C[C@@H]4c4ccccc4)C3)nc2)C[C@H]1C(=O)N[C@H]1C[C@@H]1c1ccccc1
